Assay results as given in patent US11571426B2, “Compositions for preventing or treating lupus” (CHONG KUN DANG PHARMACEUTICAL CORP., priority 2017, dated 2023).
Marks after values point to notes of the source that are not given here.

How the values were obtained:
[1] = system: TNFα secretion in LPS-stimulated human monocyte cell lines (THP-1); assay: Suppression of TNFα secretion in LPS-stimulated THP-1 (ELISA); format: cell-based; conditions: at both 100 nM and 300 nM
Method: To identify the efficacy of the inventive compounds on suppressing a TNFα secretion in immune responses, suppression of TNFα production, which was achieved by a treatment with compounds 374, 461, 500, 530 and 532 according to the present invention in LPS-stimulated human monocyte cell lines (THP-1), was quantified by means of an enzyme immuno-assay (ELISA).
Specifically, the THP-1 cell lines (ATCC) were cultured in an RPMI-1640 medium comprising 10% FBS. The cell lines were divided into a 24 well plate at a ratio of 1×10^5 cells per well, then treated with 100 ng/mL PMA (phorbol 12-myristate 13-acetate) for 24 hours, and then differentiated into macrophage. Then, the culture medium was replaced with a new one, then treated with a test drug for 24 hours, and then treated again with 10 ng/mL LPS (E. Coli, O55:B5) for four hours for stimulation. After that, supernatant was taken and used to measure the amount of TNFα secreted from the cells by means of a Human TNFα Instant ELISA kit (eBioscience, BMS223INST) according to a protocol provided by a manufacturer.

[2] = system: NZB/W F1 female mice; assay: Serum cytokine level (Milliplex MAP kit) in SLE disease mouse; format: in vivo
Method: (§1) 80 NZB/W F1 female mice (four weeks old) were purchased from Jackson Laboratory and maintained in an SPF breeding room with five mice per cage. Their weight and urine protein were measured at 24 weeks after birth (right before administration), and then all the animals except those having too much urine protein were divided into groups as shown in a table 2 below such that the urine protein and weight might be evenly distributed among the groups.
(§2) Then, the mice were administered as described in the table 2 once a day for about 19 weeks from 24 weeks after birth to 42 weeks after birth.
The fresh urine of mice was collected before and after administration every two weeks, while blood collection was performed before and after administration every four weeks. The serum was prepared by centrifugation of the collected blood and then kept at −70° C.
To analyze an effect of the inventive pharmaceutical composition on a change in a serum cytokine level in the SLE disease mouse, a level of GM-CSF, IFN-γ, IL-1α, IL-1β, IL-10, IL-12(p70), IL-15, IL-17a, IL-2, IL-4, IL-6, TNF-α, […], IL-22 and IL-23 in serum was measured by means of a Mouse cytokine Milliplex MAP kit (Merck Millipore), wherein the results thereof were shown in a table 3.
Data obtained from groups were compared using a Kruskal-Wallis (†p<0.05) *p<0.05 versus C group (Mann-Whitney U-test)

[3] = system: NZB/W F1 female mice; assay: Serum chemistry after long-term administration; format: in vivo, mouse; conditions: serum at autopsy
Method: as §1, §2
Data obtained from groups were compared using a Kruskal-Wallis (†p<0.05), *p<0.05 versus C group (Mann-Whitney U-test), ALT: alanine aminotransferase, AST: aspartate aminotransferase, ALP: alkaline phosphatase, TBIL: total bilirubin, TCHOL: total cholesterol, TG: triglyceride, TP: total protein, CPK: creatine phosphokinase)

[4] = system: NZB/W F1 female mice; assay: Renal histopathological evaluation in SLE model mouse; format: in vivo
Method: as §1, §2
To identify an effect of the inventive pharmaceutical composition on kidney in the SLE disease model, a histopathological evaluation was performed.
First of all, a half of a left kidney of a mouse collected during the autopsy was fixed with 10% neutral buffered formalin and prepared as a paraffin block. Then, a histopathological evaluation was performed by means of hematoxylin and eosin staining (H&E, BBC Biochemical, Mount Vernon, Wash., USA), periodic acid-schiff staining (PAS, BBC Biochemical) and Masson's trichrome staining (BBC Biochemical).

[5] = system: NZB/W F1 female mice; assay: Weight recovery in SLE model mouse; format: in vivo
Method: as §1, §2

[6] = group D, 10 mg/kg/day i.p., n =10
[7] = group E, 30 mg/kg/day i.p., n = 14
[8] = group F, 50 mg/kg/day i.p., n = 14
[9] = mice of the experimental groups

Structure (SMILES): O=C(NO)c1ccc(CN(C(=O)N2CCOCC2)c2cccc(C(F)(F)F)c2)cc1 [Compound 374, N-(4-(hydroxycarbamoyl)benzyl)-N-(3-(trifluoromethyl)phenyl)morpholine-4-carboxamide]
- level of TNFα secretion [1]: remarkably decreased
- GM-CSF in serum [2, 6]: 2.65 ± 2.65 pg/mL
- IFN-γ in serum [2, 6]: 1.06 ± 1.06 pg/mL
- IL17 in serum [2, 6]: 10.40 ± 3.86 pg/mL
- IL22 in serum [2, 6]: 27.05 ± 9.95 pg/mL
- IL-1α in serum [2, 6]: 371.96 ± 82.72 pg/mL
- IL-1β in serum [2, 6]: 1.27 ± 0.65 pg/mL
- IL-2 in serum [2, 6]: 1.91 ± 1.77 pg/mL
- IL-4 in serum [2, 6]: 1.74 ± 0.19 pg/mL
- IL-6 in serum [2, 6]: 7.21 ± 2.34 pg/mL
- IL-10 in serum [2, 6]: 25.00 ± 8.01 pg/mL
- IL-12(70) in serum [2, 6]: 1.94 ± 1.17 pg/mL
- IL-15 in serum [2, 6]: 184.36 ± 88.58 pg/mL
- IL-23 in serum [2, 6]: 1.96 ± 1.96 pg/mL
- TGF-β in serum [2, 6]: 73356.45 ± 7258.05 pg/mL
- TNF-α in serum [2, 6]: 7.91 ± 2.67 pg/mL
- GM-CSF in serum [2, 7]: 5.32 ± 4.06 pg/mL
- IFN-γ in serum [2, 7]: 6.60 ± 4.07 pg/mL
- IL17 in serum [2, 7]: 21.14 ± 14.59 pg/mL
- IL22 in serum [2, 7]: 13.00 ± 4.40 pg/mL
- IL-1α in serum [2, 7]: 458.40 ± 90.79 pg/mL
- IL-1β in serum [2, 7]: 74.66 ± 70.56 pg/mL
- IL-2 in serum [2, 7]: 9.32 ± 4.75 pg/mL
- IL-4 in serum [2, 7]: 8.60 ± 6.80 pg/mL
- IL-6 in serum [2, 7]: 21.23 ± 13.62 pg/mL
- IL-10 in serum [2, 7]: 56.55 ± 39.16 pg/mL
- IL-12(70) in serum [2, 7]: 74.50 ± 63.63 pg/mL
- IL-15 in serum [2, 7]: 162.41 ± 53.62 pg/mL
- IL-23 in serum [2, 7]: 100.56 ± 100.56 pg/mL
- TGF-β in serum [2, 7]: 58807.36 ± 6685.72 pg/mL
- TNF-α in serum [2, 7]: 16.25 ± 13.46 pg/mL
- GM-CSF in serum [2, 8]: 1.89 ± 1.89 pg/mL
- IFN-γ in serum [2, 8]: 2.07 ± 1.44 pg/mL
- IL-1α in serum [2, 8]: 629.16 ± 128.47 pg/mL
- IL-1β in serum [2, 8]: 3.86 ± 2.09 pg/mL
- IL-2 in serum [2, 8]: 4.09 ± 2.63 pg/mL
- IL-4 in serum [2, 8]: 3.70 ± 1.73 pg/mL
- IL-6 in serum [2, 8]: 5.69 ± 2.39 pg/mL
- IL-12(70) in serum [2, 8]: 15.62 ± 12.09 pg/mL
- IL-23 in serum [2, 8]: 41.34 ± 41.34 pg/mL
- TGF-β level [2, 9]: increased
- serum concentration of IL-10 [2, 9]: decreased
- serum concentration of IL-12 [2, 9]: decreased
- serum concentration of IL-15 [2, 9]: decreased
- serum concentration of IL-17 [2, 9]: decreased
- serum concentration of IL-22 [2, 9]: decreased
- serum concentration of TNF-α [2, 9]: decreased
- ALP ([3]; group D, 10 mg/kg/day i.p.): 187.44 ± 20.75 U/I
- ALT ([3]; group D, 10 mg/kg/day i.p.): 18.10 ± 1.72 U/I
- AST ([3]; group D, 10 mg/kg/day i.p.): 44.20 ± 3.19 U/I
- Albumin ([3]; group D, 10 mg/kg/day i.p.): 1.91 ± 0.14 g/dL
- CPK ([3]; group D, 10 mg/kg/day i.p.): 86.70 ± 17.99 U/I
- Ca ([3]; group D, 10 mg/kg/day i.p.): 10.08 ± 0.40 mg/dL
- Glucose ([3]; group D, 10 mg/kg/day i.p.): 162.56 ± 9.36 mg/dL
- TBIL ([3]; group D, 10 mg/kg/day i.p.): 0.22 ± 0.03 mg/dL
- TCHOL ([3]; group D, 10 mg/kg/day i.p.): 193.60 ± 34.55 mg/dL
- TG ([3]; group D, 10 mg/kg/day i.p.): 241.00 ± 35.25 mg/dL
- TP ([3]; group D, 10 mg/kg/day i.p.): 4.74 ± 0.20 g/dL
- ALP ([3]; group E, 30 mg/kg/day i.p.): 155.92 ± 5.53* U/I
- ALT ([3]; group E, 30 mg/kg/day i.p.): 20.79 ± 0.78* U/I
- AST ([3]; group E, 30 mg/kg/day i.p.): 55.21 ± 5.17* U/I
- Albumin ([3]; group E, 30 mg/kg/day i.p.): 2.19 ± 0.11 g/dL
- CPK ([3]; group E, 30 mg/kg/day i.p.): 84.71 ± 8.39 U/I
- Ca ([3]; group E, 30 mg/kg/day i.p.): 9.65 ± 0.19 mg/dL
- Glucose ([3]; group E, 30 mg/kg/day i.p.): 191.29 ± 7.33* mg/dl
- TBIL ([3]; group E, 30 mg/kg/day i.p.): 0.26 ± 0.03 mg/dL
- TCHOL ([3]; group E, 30 mg/kg/day i.p.): 140.07 ± 14.48 mg/dL
- TG ([3]; group E, 30 mg/kg/day i.p.): 240.86 ± 56.19* mg/dl
- TP ([3]; group E, 30 mg/kg/day i.p.): 5.21 ± 0.19 g/dL
- ALP ([3]; group F, 50 mg/kg/day i.p.): 153.08 ± 4.78 U/I
- ALT ([3]; group F, 50 mg/kg/day i.p.): 29.07 ± 3.26* U/I
- AST ([3]; group F, 50 mg/kg/day i.p.): 59.00 ± 15.00 U/I
- Albumin ([3]; group F, 50 mg/kg/day i.p.): 2.26 ± 0.09* g/dl
- CPK ([3]; group F, 50 mg/kg/day i.p.): 125.86 ± 47.35 U/I
- Ca ([3]; group F, 50 mg/kg/day i.p.): 9.43 ± 0.16 mg/dL
- Glucose ([3]; group F, 50 mg/kg/day i.p.): 200.23 ± 3.91* mg/dl
- TBIL ([3]; group F, 50 mg/kg/day i.p.): 0.28 ± 0.04 mg/dL
- TCHOL ([3]; group F, 50 mg/kg/day i.p.): 129.57 ± 8.98 mg/dL
- TG ([3]; group F, 50 mg/kg/day i.p.): 183.29 ± 15.00 mg/dL
- TP ([3]; group F, 50 mg/kg/day i.p.): 5.35 ± 0.16* g/dl
- infiltration of inflammatory cells in kidney (marks 0-4) ([4]; 30 and 50 mg/kg dosed groups): remarkably excellent effect of reducing the infiltration of inflammatory cells
- degree of infiltration of inflammatory cells in kidney (marks 0-4) ([4]; experimental groups): decreased
- weight ([5]; 10 mg/kg dosed group, from about 40 weeks): recovered to the same level as that of the positive control group
- weight recovery ([5]; 30 and 50 mg/kg dosed groups, vs positive control): more excellent weight recovery effect
